Experimental data published in patent US10894807B2 (Siemens Medical Solutions USA, Inc., priority 2011, dated 2021).

Biological target: human PSMA (Homo sapiens (Human), UniProt Q04609)
Assay: Enzymatic assay for in vitro evaluation of PSMA inhibitors (fluorescent assay of PSMA activity, NAAG substrate, OPA detection of glutamate)
Type: biochemical

Chain of human PSMA (Q04609 whole entry): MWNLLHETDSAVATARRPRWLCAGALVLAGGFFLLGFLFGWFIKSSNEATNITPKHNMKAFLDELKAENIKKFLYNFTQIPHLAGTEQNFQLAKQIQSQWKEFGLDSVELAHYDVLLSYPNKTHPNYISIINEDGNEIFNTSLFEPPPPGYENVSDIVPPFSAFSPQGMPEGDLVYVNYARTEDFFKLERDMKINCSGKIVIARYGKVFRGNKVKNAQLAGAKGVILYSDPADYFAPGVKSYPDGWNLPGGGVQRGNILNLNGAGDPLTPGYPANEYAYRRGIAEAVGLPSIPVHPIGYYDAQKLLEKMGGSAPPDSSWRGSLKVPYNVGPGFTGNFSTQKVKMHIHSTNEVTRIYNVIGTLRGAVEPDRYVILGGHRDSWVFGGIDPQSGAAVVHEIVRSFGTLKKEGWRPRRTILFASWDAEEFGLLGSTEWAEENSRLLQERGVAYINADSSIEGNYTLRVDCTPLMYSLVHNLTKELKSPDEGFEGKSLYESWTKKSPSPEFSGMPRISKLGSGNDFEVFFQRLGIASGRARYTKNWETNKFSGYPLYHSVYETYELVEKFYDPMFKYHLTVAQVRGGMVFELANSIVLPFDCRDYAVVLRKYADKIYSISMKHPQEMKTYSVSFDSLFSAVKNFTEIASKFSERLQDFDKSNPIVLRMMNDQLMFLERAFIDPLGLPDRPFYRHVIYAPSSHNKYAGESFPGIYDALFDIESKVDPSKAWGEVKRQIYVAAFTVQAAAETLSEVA

SMILES	PSMA Blkg % (10 μM)	Ki
CN(C(=O)N[C@@H](CCC(=O)O)C(=O)O)[C@@H](Cc1ccc(NC(=O)CCCn2cc(CCCF)nn2)cc1)C(=O)O [P191, (S)-2-(3-((S)-1-Carboxy-2-(4-(4-(4-(3-fluoropropyl)-1H-1,2,3-triazol-1-yl)-butanamido)phenyl)-ethyl)-3-methylureido)pentanedioic Acid]	78%	–
O=C(O)Cn1cc(C[C@H](NC(=O)N[C@@H](CCCCNC(=O)OCc2ccccc2)C(=O)O)C(=O)O)nn1 [P192, (9S,13S)-9-Carboxy-13-((1-(carboxymethyl)-1H-1,2,3-triazol-4-yl)methyl)-3,11-dioxo-1-phenyl-2-oxa-4,10,12-triazatetradecan-14-oic Acid]	29%	–
O=C(O)CCC(CP(=O)(O)OCCOCCOCCOCCn1cc(CCCF)nn1)C(=O)O (stereo not shown) [P193, 2-(((2-(2-(2-(2-(4-(3-Fluoropropyl)-1H-1,2,3-triazol-1-yl)ethoxy)ethoxy)ethoxy)ethoxy)(hydroxy)phosphoryl)methyl)pentanedioic Acid]	0%	–
O=C(O)CC[C@H](NC(=O)N[C@@H](CCCCNC(=O)[C@H]1O[C@@H](CNC(=O)CCc2ccc(-n3cc(CCCF)nn3)cc2)[C@H](O)[C@@H](O)[C@H]1O)C(=O)O)C(=O)O [P194, (S)-2-(3-((S)-1-Carboxy-5-((2S,3R,4R,5R,6S)-6-((3-(4-(4-(3-fluoropropyl)-1H-1,2,3-triazol-1-yl)phenyl)propanamido)methyl)-3,4,5-trihydroxytetrahydro-2H-pyran-2-carboxamido)pentyl)ureido)pentanedioic Acid]	96%	69 nM
O=C(O)CC[C@H](NC(=O)N[C@@H](Cc1ccc(OCCn2cc(CCCF)nn2)cc1)C(=O)O)C(=O)O [P195, (S)-2-(3-((S)-1-Carboxy-2-(4-(2-(4-(3-fluoropropyl)-1H-1,2,3-triazol-1-yl)ethoxy)phenyl)ethyl)ureido)pentanedioic Acid]	96%	66 nM
CC(=O)N(CCF)CC(CP(=O)(O)O)C(=O)O.O=C(O)C(F)(F)F (stereo not shown) [P196, 3-(N-(2-Fluoroethyl)acetamido)-2-(phosphonomethyl)propanoic Acid]	27%	–
O=C(O)CCC(CP(=O)(O)NCCc1ccccc1)C(=O)O (stereo not shown) [P197, 2-((Hydroxy(phenethylamino)phosphoryl)methyl)pentanedioic Acid]	22%	> 3000 nM
O=C(O)CCC(Nc1c(NC(CCC(=O)O)C(=O)O)c(=O)c1=O)C(=O)O (stereo not shown) [P198, 2,2′-[(3,4-Dioxocyclobut-1-ene-1,2-diyl)bis(azanediyl)]dipentanedioic Acid]	14%	–
O=C(O)CC[C@H](NC(=O)C[C@@H](NC(=O)OCC1c2ccccc2-c2ccccc21)C(=O)O)C(=O)O [P199, (S)-2-[(R)-((((9H-Fluoren-9-yl)methoxy)carbonyl)amino)-3-carboxypropanamido]pentanedioic Acid]	82%	> 188 nM
O=C(O)CC[C@H](NC(=O)N[C@@H](CCCCNC(=S)Nc1ccc(-n2cc(CCCF)nn2)cc1)C(=O)O)C(=O)O [P200, (S)-2-(3-((S)-1-Carboxy-5-(3-(4-(4-(3-fluoropropyl)-1H-1,2,3-triazol-1-yl)phenyl)thioureido)pentyl)-ureido)pentanedioic Acid]	95%	< 0.3 nM
CC(C)(C)OC(=O)N1CCC[C@H]1COP(=O)(O)CC(CCC(=O)O)C(=O)O (stereo partly drawn) [P201, 2-(((((S)-1-(tert-butoxycarbonyl)pyrrolidin-2-yl)methoxy)(hydroxy)phosphoryl)methyl)-pentanedioic Acid]	83%	> 300 nM
O=C(O)CC[C@H](NC(=O)NC(Cc1ccc(OCCn2cc(CCCF)nn2)cc1)C(=O)O)C(=O)O (stereo partly drawn) [P202, (2S)-2-(3-(1-Carboxy-2-(4-(2-(4-(3-fluoropropyl)-1H-1,2,3-triazol-1-yl)ethoxy)phenyl)ethyl)ureido)pentanedioic Acid]	97%	94 nM
O=C(O)CC[C@H](NC(=O)N[C@@H](Cc1ccc(OCCOCCOCCn2cc(CCCF)nn2)cc1)C(=O)O)C(=O)O [P203, (S)-2-(3-((S)-1-Carboxy-2-(4-(2-(2-(2-(4-(3-fluoropropyl)-1H-1,2,3-triazol-1-yl)ethoxy)ethoxy)ethoxy)phenyl)ethyl)ureido)pentanedioic Acid]	97%	41 nM
O=C(O)CC[C@H](NC(=O)N[C@@H](COCc1ccccc1)C(=O)O)C(=O)O [P204, (S)-2-(3-((S)-2-(Benzyloxy)-1-carboxyethyl)ureido)pentanedioic Acid]	98%	6.9 nM
O=C(O)CCC(CP(=O)(O)OC[C@@H]1CCCN1C(=O)Cc1ccccc1)C(=O)O (stereo partly drawn) [P205, 2-((Hydroxy(((S)-1-(2-phenylacetyl)pyrrolidin-2-yl)methoxy)phosphoryl)methyl)pentanedioic Acid]	79%	–
O=C(O)CCC(CP(=O)(O)OC[C@@H]1CCCN1C(=O)CCc1ccc(-n2cc(CCCF)nn2)cc1)C(=O)O (stereo partly drawn) [P206, 2-(((((S)-1-(3-(4-(4-(3-Fluoropropyl)-1H-1,2,3-triazol-1-yl)phenyl)propanoyl)pyrrolidin-2-yl)methoxy)(hydroxy)phosphoryl)methyl)pentanedioic Acid]	81%	–
O=C(O)CCC(CP(=O)(O)OC[C@@H]1CCCN1C(=O)CCCc1ccc(-n2cc(CCCF)nn2)cc1)C(=O)O (stereo partly drawn) [P207, 2-(((((S)-1-(4-(4-(4-(3-Fluoropropyl)-1H-1,2,3-triazol-1-yl)phenyl)butanoyl)pyrrolidin-2-yl)methoxy)(hydroxy)phosphoryl)methyl)pentanedioic Acid]	96%	18.8 nM
O=C(O)CC[C@H](NC(=O)C[C@@H](NC(=O)CCCNC(=O)OCc1ccccc1)C(=O)O)C(=O)O [P208, (10R,14S)-3,8,12-Trioxo-1-phenyl-2-oxa-4,9,13-triazahexadecane-10,14,16-tricarboxylic Acid]	75%	–
O=C(O)CC[C@H](NC(=O)C[C@@H](NC(=O)CCCCCNC(=O)OCc1ccccc1)C(=O)O)C(=O)O [P209, (12R,16S)-3,10,14-Trioxo-1-phenyl-2-oxa-4,11,15-triazaoctadecane-12,16,18-tricarboxylic Acid]	44%	–
O=C(O)CC[C@H](NC(=O)C[C@@H](NC(=O)Cc1ccc(F)cc1)C(=O)O)C(=O)O [P210, (S)-2-((R)-3-Carboxy-3-(2-(4-fluorophenyl)acetamido)propanamido)pentanedioic Acid]	16%	–
O=C(O)CC[C@H](NC(=O)C[C@@H](NC(=O)CCCc1ccc(F)cc1)C(=O)O)C(=O)O [P211, (S)-2-((R)-3-Carboxy-3-(4-(4-fluorophenyl)butanamido)propanamido)pentanedioic Acid]	43%	–
O=C(O)CC[C@H](NC(=O)N[C@@H](Cc1ccc(NC(=O)Nc2ccc(-n3cc(CCCF)nn3)cc2)cc1)C(=O)O)C(=O)O [P212, (S)-2-(3-((S)-1-Carboxy-2-(4-(3-(4-(4-(3-fluoropropyl)-1H-1,2,3-triazol-1-yl)phenyl)ureido)phenyl)ethyl)ureido)pentanedioic Acid]	99%	3.1 nM
O=C(O)CC[C@H](NC(=O)C[C@@H](NC(=O)c1ccc(F)nc1)C(=O)O)C(=O)O [P213, (S)-2-((R)-3-Carboxy-3-(6-fluoronicotinamido)propanamido)pentanedioic Acid]	33%	–
